The values below come from paper PMC8776228 (International Journal of Molecular Sciences, 2022).

The subject of test [1] is M. tuberculosis NTB1 (DprE1 C387S). The format is cell-based, Mycobacterium tuberculosis.
Test [2] relates to M. tuberculosis H37Rv-pSODIT:dprE1. The experiment in a line: microbe, parasite or virus in culture. The format is cell-based, Mycobacterium tuberculosis.
In test [3] the test system is M. tuberculosis NTB9 (DprE1 C387G). The class given is cell-based, Mycobacterium tuberculosis.
Test [4] relates to M. tuberculosis 53.8 (Rv0579, L240V). The format is cell-based, Mycobacterium tuberculosis.
Test [5] concerns M. tuberculosis 53.3 (Rv2466c, W28S). The format is cell-based, Mycobacterium tuberculosis.
The test system of test [6] is M. tuberculosis DR1 (mmpL3, V681I). The format is cell-based, Mycobacterium tuberculosis.
A further test concerns M. tuberculosis IC2. As to the kind of experiment: microbe, parasite or virus in culture. The class given is cell-based. Conditions: Mycobacterium tuberculosis.
For a further test, the system named is M. tuberculosis IC1. As to the kind of experiment: microbe, parasite or virus in culture. The class given is cell-based. Conditions: Mycobacterium tuberculosis.
The test system of test [7] is M. tuberculosis 88.1 (coaA, Q207R). The class given is cell-based, Mycobacterium tuberculosis.
The subject of test [8] is M. tuberculosis 81.10 (ethA, D1109-37). The format is cell-based, Mycobacterium tuberculosis.
Test [9] relates to M. tuberculosis 88.7 (pyrG, V186G). The class given is cell-based, Mycobacterium tuberculosis.
Test [10] relates to M. tuberculosis Ty1 (Rv3405c, c190t). The class given is cell-based, Mycobacterium tuberculosis.

Values after ≈ are worked out from the molar mass of the structure shown. Like-named read-outs stand apart in the source and are kept apart here. Bounds are passed on as bounds.

For the compound `C[C@H]1COC2(CCN(c3nc(=O)c4cc(C(F)(F)F)cc([N+](=O)[O-])c4s3)CC2)O1` [BTZ043], the “MIC BTZ043” value is greater than 1 µg/mL in test [1] and 1 µg/mL (≈ 2.32 µM) in [3]. Further, the MIC in test [2] (Mycobacterium tuberculosis, H37RV, read-out: MIC BTZ043) was found to be 1 µg/mL (≈ 2.32 µM).
Consider `NNC(=O)c1ccncc1` [INH, isoniazid], for which the “MIC INH” value in test [1], in test [4], in test [5], in test [6], in test [3] and in [7] was 0.025 µg/mL (≈ 0.182 µM) each time. Also, the “MIC INH” value in [8], in [9] and in test [10] was 0.025 µg/mL (≈ 0.182 µM) in each case. The MIC in the test on M. tuberculosis IC2 (IC2, read-out: MIC INH) was greater than 0.2 µg/mL; with M. tuberculosis IC1 (IC1, read-out: MIC INH) it was greater than 0.2 µg/mL.
Take `CO[C@H]1C[C@H](O[C@@H]2/C(C)=C/C[C@@H]3C[C@@H](C[C@]4(CC[C@H](C)[C@@H](C5CCCCC5)O4)O3)OC(=O)[C@@H]3C=C(C)/C(=N/O)[C@H]4OC/C(=C\C=C\[C@@H]2C)[C@]43O)O[C@@H](C)[C@@H]1O` [Selamectin]: the “MIC SEL” value was 2 µg/mL (≈ 2.6 µM) in test [1]; 2 to 4 µg/mL in test [4]; 2 to 4 µg/mL in test [5]; 2 to 4 µg/mL in [6]; 2 µg/mL (≈ 2.6 µM) in test [3]; 2 to 4 µg/mL in test [7]. In addition, the figures for the “MIC SEL” value in test [8], in test [9] and in [10] were 4 to 8 µg/mL, 2 to 4 µg/mL and 2 to 4 µg/mL, respectively. Further, the “change in sensitivity compared to H37Rv (MIC)” value in test [1] and in test [3] was “two-fold increase in sensitivity” in each case. In [2], the “change in susceptibility upon overexpression of dprE1 (MIC)” value is given as “did not confer changes in the susceptibility”. Besides, the MIC is 4 to 8 µg/mL (≈ 5.19 to 10.4 µM) in the test with M. tuberculosis IC2 (IC2, read-out: MIC SEL) and 4 to 8 µg/mL (≈ 5.19 to 10.4 µM) in the test on M. tuberculosis IC1 (IC1, read-out: MIC SEL).
